From patent US4423039A, “Disaggregated solutions of polypeptides, their preparation and use” (The Hospital for Sick Children, priority 1980, dated 1983)

What was measured:
zinc insulin crystals = target: T1, zinc insulin crystals (Sus scrofa, UniProt P01315); assay: dissolution times of zinc insulin crystals exposed to test solutions (microscope slide assay); format: physicochemical, pork
T1 construct: measures the dissolution times of zinc insulin crystals
Description: (§1) The test involved transferring pork insulin crystals to a clean microscope slide using the tip of a 25 G needle so that 10 to 30 crystals were distributed in the field of view. A 25 μl aliquot of the test solution was pipetted to form a small droplet which covered the crystals. […] The pH's of the test solutions were measured and the former were adjusted where appropiate to pH 7.5 using 1 N NaOH or 1 N HCl.

glucagon = glucagon (Homo sapiens, UniProt P01275); assay: dissolution of glucagon crystals in test solutions (tested as for insulin); format: physicochemical; details: 150 mmol solution (pH 7.5) in distilled water
Description: as §1

Neutral pork insulin = Neutral pork insulin (Sus scrofa, UniProt P01315); details: 2.5, 25, 250 and 2,500 mmolar; 5 U/ml neutral pork insulin, 0.1 g copper per 10 ml, shaken at 37° C., pH 7.5, triplicate
Description: Biostatic water was used as the diluent. Neutral pork insulin was added to each to give a final concentration of 5 U/ml. To each sterile 10 ml vial 0.1 g of copper was added. Control vials were prepared exactly as above but no bicarbonate was added. The vials were aggitated on an Eberback shaker at 37° C. The experiment was run in triplicate at pH 7.5.

[1] = test solution 150 mmol/l, pH 7.5, 25 μl droplet on pork zinc insulin crystals

T1 sequence (P01315 25-54 limits assumed): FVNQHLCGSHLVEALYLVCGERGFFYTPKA
T1 sequence (P01315 88-108 limits assumed): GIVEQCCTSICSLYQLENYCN
Sequence of glucagon (P01275 53-81 limits assumed, species assumed): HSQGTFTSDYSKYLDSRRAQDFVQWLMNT
Sequence of Neutral pork insulin (P01315 25-54 limits assumed): as the sequence (P01315 25-54 limits assumed) above

Dissolution Time ± SEM (zinc insulin crystals; [1])	dissolution time of glucagon (glucagon)	time vials remained clear (no aggregation) to date (Neutral pork insulin)	Dissolution Time ± SEM (zinc insulin crystals; test solution 25 mmol/l, pH 7.5)	SMILES	fraction of insulin crystals dissolved at 300 sec (zinc insulin crystals; 25 mmol/l, at 300 sec)
> 1200 s	–	–	–	CC(O)C(=O)O (stereo not shown) [Lactic Acid]	–
50 ± 5 s	45 ± 12 s	≥ 35 days	360 ± 20 s	O=C([O-])O.[Na+] [Sodium Bicarbonate]	–
–	–	–	–	NC(N)=O [Urea]	20%

SMILES	Dissolution Time ± SEM (zinc insulin crystals; [1])	dissolution time of glucagon (glucagon)	time vials remained clear (no aggregation) to date (Neutral pork insulin)	Dissolution Time ± SEM (zinc insulin crystals; test solution 25 mmol/l, pH 7.5)	fraction of insulin crystals dissolved at 300 sec (zinc insulin crystals; 25 mmol/l, at 300 sec)
O=CO [Formic Acid]	> 1200 s	–	–	–	–
